Results on 19 compounds are retold here after ChEMBL document CHEMBL1153050, “Amidine derived inhibitors of acid-sensing ion channel-3 (ASIC3)” (Bioorg Med Chem Lett, 2009).

Data set [1] concerns the target T1, Acid-sensing ion channel 3 (Homo sapiens) (UniProt Q9UHC3).
T1 sequence (whole entry): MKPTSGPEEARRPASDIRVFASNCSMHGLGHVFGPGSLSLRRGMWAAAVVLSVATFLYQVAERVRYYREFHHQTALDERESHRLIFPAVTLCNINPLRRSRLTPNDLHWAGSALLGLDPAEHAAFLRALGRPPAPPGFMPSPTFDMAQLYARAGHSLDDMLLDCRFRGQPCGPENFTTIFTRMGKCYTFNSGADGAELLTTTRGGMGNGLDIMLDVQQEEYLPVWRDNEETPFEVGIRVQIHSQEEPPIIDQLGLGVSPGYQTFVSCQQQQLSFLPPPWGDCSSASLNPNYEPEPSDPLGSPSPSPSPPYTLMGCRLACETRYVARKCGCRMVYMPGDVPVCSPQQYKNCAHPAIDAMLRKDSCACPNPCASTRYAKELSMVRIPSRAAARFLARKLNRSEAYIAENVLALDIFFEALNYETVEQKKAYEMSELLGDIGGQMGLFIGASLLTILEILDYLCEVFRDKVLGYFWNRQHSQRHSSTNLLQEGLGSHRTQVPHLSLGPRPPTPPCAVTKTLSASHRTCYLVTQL
Description: Inhibition of ASIC3 at 1 uM by patch-clamp electrophysiology assay relative to baseline peak current. A general note: In patch-clamp work, channel activity is measured electrically.

For data set [2], the target named is T1, Acid-sensing ion channel 3 (Homo sapiens). The data set can be described thus: Inhibition of ASIC3 at 10 uM by patch-clamp electrophysiology assay relative to baseline peak current.
Data set [3] deals with T2, Acid-sensing ion channel 3 (Homo sapiens, UniProt Q9UHC3).
T2 sequence (Q9UHC3 whole entry): T1 sequence (whole entry)
The data set can be described thus: Inhibition of ASIC3 by patch-clamp electrophysiology assay.

Data set [4] deals with Rattus norvegicus. The data set can be described thus: Analgesic activity against complete Freund's adjuvant-induced […] in Sprague-Dawley rat assessed as reversal of mechanical hypersensitivity at 30 mg/kg, ip after 30 mins. Type of data set: functional, organism-based. Further details: dose 30 mg/kg.
Data set [5] deals with Rattus norvegicus. The data set can be described thus: Analgesic activity against complete Freund's adjuvant-induced […] in Sprague-Dawley rat assessed as reversal of mechanical hypersensitivity at 20 mg/kg, po after 30 mins. Type of data set: functional, organism-based. Also noted: dose 20 mg/kg.
A short description of data set [6]: Plasma clearance in iv dosed rat. Type of data set: ADME, organism-based.
The nature of data set [7]: Half life in iv dosed rat plasma. Type of data set: ADME, organism-based.
Data set [8] can be described thus: Blood clearance in iv dosed rat. Type of data set: ADME, organism-based. The settings on record: whole blood.
Data set [9] is described as follows: Half life in iv dosed rat blood. Type of data set: ADME, organism-based. The following applies: whole blood.

Calls of active or inactive are those of the source.

With `N=C(N)c1ccc(-c2cc3ccc(C(=N)N)cc3[nH]2)cc1`, the inhibition was 33% in [1] and 83% in [2].
In turn, `N=C(N)c1ccc2[nH]c(-c3cc(Cl)cc(CNc4ccccc4)c3)cc2c1` gave an inhibition in data set [1] of 83%. Further, in data set [3], half-maximal inhibition (IC50) was put at 114 nM.
Take `N=C(N)c1ccc2[nH]c(-c3cc(F)cc(Br)c3)cc2c1`: the inhibition in [1] was determined as 93%; in [2] it was 96%. In data set [3], this compound registered an IC50 of 59 nM.
In the case of `N=C(N)c1ccc2[nH]c(-c3ccccc3)cc2c1`, in data set [2], the inhibition was determined as 88%. This compound returned an IC50 in data set [3] of 2760 nM.
In turn, `N#Cc1c(Cl)cc(-c2cc3cc(C(=N)N)ccc3[nH]2)cc1Cl` returned an inhibition in [1] of 83%. In addition, the IC50 in data set [3] is 272 nM.
As for `N=C(N)c1ccc2[nH]c(-c3cc(Cl)cc(Cl)c3)cc2c1`, the inhibition was 92% in [1] and 98% in data set [2]. The same compound displayed an IC50 in data set [3] of 133 nM. Moreover, the outcome in the data set on Rattus norvegicus [4] and in the data set on Rattus norvegicus [5] was Active. Moreover, the clearance in [6] and in data set [8] was 8.5 mL/min/kg throughout. Moreover, the half-life is 2 h in [7] and 4.4 h in data set [9].
With `Cn1c(-c2ccc(C(=N)N)cc2)cc2cc(C(=N)N)ccc21`, the inhibition in data set [1] turned out to be 14%.
For the compound `N=C(N)c1ccc(-c2cc3ccccc3[nH]2)cc1`, the inhibition in [2] was determined as 46%.
For the compound `Cc1cc(Cl)cc(-c2cc3cc(C(=N)N)ccc3[nH]2)c1`, the inhibition in data set [1] stood at 87%. The IC50 in data set [3] came out at 51 nM.
For `N=C(N)c1ccc2[nH]c(-c3cc(Cl)cc(Cl)c3Cl)cc2c1` the same measures were 91% and 135 nM.
Turning to `N=C(N)c1ccc2[nH]c(-c3cc(Br)cc(Br)c3)cc2c1`, the inhibition in data set [1] and in data set [2] was 92% throughout. Moreover, the half-inhibitory concentration (IC50) in data set [3] amounted to 59 nM.
`N=C(N)c1ccc(-c2nc3cc(C(=N)N)ccc3[nH]2)cc1` had an inhibition in data set [2] of 53%.
For `N=C(N)c1ccc2[nH]c(-c3cc(N)cc(Cl)c3)cc2c1`, the inhibition in data set [1] is 78%. This compound also gave a half-maximal inhibitory concentration (IC50) in data set [3] of 95 nM.
The matching figures for `N=C(N)c1ccc2[nH]c(-c3cc(Cl)nc(Cl)c3)cc2c1`: 84% and 291 nM.
In the case of `COc1cc(F)cc(-c2cc3cc(C(=N)N)ccc3[nH]2)c1`, the figures for the inhibition in data set [1] and in data set [2] were 77% and 98%, respectively. Moreover, half-maximal inhibition in data set [3] (IC50) was put at 374 nM.
In [1], `N=C(N)c1ccc2cc(-c3ccccc3)[nH]c2c1` yielded an inhibition of 18%.
In turn, `N=C(N)c1ccc2[nH]c(-c3cc(Cl)cc(-c4ccccc4)c3)cc2c1` gave an inhibition in data set [1] of 94%.
Turning to `N=C(N)c1ccc2[nH]c(-c3cc(F)cc(Cl)c3)cc2c1`, the inhibition in data set [1] is 82%; in [2] it was 99%. Further, the IC50 in data set [3] came out at 278 nM.
For `N=C(N)c1ccc2[nH]c(-c3cc(Cl)cc(NCc4ccccc4)c3)cc2c1`, in [1], the inhibition turned out to be 91%. Besides, the IC50 in [3] worked out at 77 nM.

What is called inhibition is the drop in the measured response relative to a control, in per cent. As usually defined, the IC50 is the concentration that gives 50% inhibition. Higher therefore signals a need for much substance. A word on the clearance: it is the rate of elimination divided by the concentration. What is called half-life is the time needed for the level to fall by half in the phase considered.
